Patent US10322088B2, “Sustained-release composition, method for fabricating, and use thereof” (NATIONAL TSING HUA UNIVERSITY, priority 2017, dated 2019)

Legend:
[1] = test system: human umbilical vein endothelial cells; assay: Tubular structure formation test on Matrigel; type: cell-based; conditions: 25 mM D-glucose
Excerpt: The human umbilical vein endothelial cells will migrate, arrange and form a tubular network structure without additional growth factors and the participation of other kinds of cells, thus the wound-healing efficiency is affected by the maintenance of the tubular structure of the cells as time goes on. Therefore, the ability to enhance cell migration and facilitate the angiogenesis of the sustained-release composition of the present disclosure is confirmed by the tubular structure formation test of the human umbilical vein endothelial cells. The specific experimental method is described below. First, 200 μL of the growth factor-reduced matrix Matrigel is added to each well of a 24-well plate respectively and then placed into the 37° C. incubator. After the growth factor-reduced matrix Matrigel is heated and become colloid, 2.5×10^4 of the human umbilical vein endothelial cells are seeded in each well of the aforementioned 24-well plate and then 200 μL of the medium (containing 25 mM D-glucose) is added to the wells respectively. […] Next, the tubular structure of each experimental group is observed via an inverted microscope at the time points of 6 hours, 12 hours, 24 hours and 48 hours, and the branching point number of each experimental group is calculated.

p38 protein = assay: Signaling molecule activation test, p38 phosphorylation by ELISA; type: cell-based, human; conditions: HUVEC
Protocol: (§1) In the aforementioned description, the exogenous hydrogen sulfide can activate the signaling molecules related to the proliferation and the migration of the endothelial cells, such as ERK1/2 protein and p38 protein, so that the angiogenesis of the cells is enhanced. Thus, the ability to activate the signaling molecule of the sustained-release composition of the present disclosure is further estimated in this experiment. First, the human umbilical vein endothelial cells are seeded in a 6-well plate in a density of 10^5 cells per well. After incubating for 24 hours, the 1% FBS mediums containing the formula of the experimental group 1 or the experimental group 3 (all of them contain 25 mM D-glucose) respectively is added to each well of a 6-wells-plate. Finally, the cells are collected at specific time points and the phosphorylation level of p38 protein and ERK1/2 are quantified by the enzyme-linked immunosorbent assay (ELISA).

ERK1/2 protein = assay: Signaling molecule activation test, ERK1/2 phosphorylation by ELISA; type: cell-based, human; conditions: HUVEC
Protocol: as §1

db/db mouse = assay: In vivo wound healing test, full-thickness back skin wounds; conditions: after treating for 18 days, dressing replaced every 48 hours
Excerpt: According to the aforementioned results, the sustained-release composition of the present disclosure does have the ability to enhance the cell migration, the cell proliferation and the angiogenesis, and the ability to facilitate the wound healing of the sustained-release composition of the present disclosure is further confirmed by the following in vivo wound healing test. The animal model established method and the animal experiment procedures of the in vivo wound healing test in this experiment are complied with the “Laboratory Animal Care and Use Guide” published by the Council of Agriculture, Taiwan. The diabetic animal model used in this experiment is an 8-week-old BKS.Cg-Lepr^db/Lepr^db/JNarl mouse (also known as db/db mouse).
In the in vivo wound healing test, four symmetrically distributed rounded full-thickness wounds are created on the back skin of each mouse by the tissue sampler after the mice are anesthetized, wherein the diameter of each wound is 0.5 centimeter and the volume of each wound is 50 μL. The four wounds are applied with different treatments respectively and the dressing is replaced every 48 hours. […] The area changes of each wound at different time points are further analyzed by the image analysis software.

S [experimental group 1, sodium hydrosulfide]
tubular structure ([1]; after incubating for 6 hours): can be observed
tubular structure disappeared rate ([1]; up to 48 hours): reduced
phosphorylation level of the p38 protein (p38 protein; after 24 hours and 48 hours): decreased
phosphorylation level of the p38 protein (p38 protein; first hour): significantly increased
phosphorylation level of the ERK1/2 protein (ERK1/2 protein; after 24 hours and 48 hours): decreased
phosphorylation level of the ERK1/2 protein (ERK1/2 protein; first hour): significantly increased
appearance of the wound (db/db mouse): unobvious
